≈ marks a conversion by molar mass, not a printed value.
Key:
[1] = biological target: Transient receptor potential cation channel subfamily V member 1 (Homo sapiens, UniProt Q8NER1); experiment: Agonist activity at human TRPV1
[2] = biological target: T1, Transient receptor potential cation channel subfamily M member 5 (Homo sapiens, UniProt Q9NZQ8); experiment: Agonist activity at human TRPM5 expressed in CHO-K1 cells assessed as increase in relative fluorescence unit measured for 2 mins by FLIPR based membrane potential assay; type: cell-based
T1 sequence (Q9NZQ8 whole entry): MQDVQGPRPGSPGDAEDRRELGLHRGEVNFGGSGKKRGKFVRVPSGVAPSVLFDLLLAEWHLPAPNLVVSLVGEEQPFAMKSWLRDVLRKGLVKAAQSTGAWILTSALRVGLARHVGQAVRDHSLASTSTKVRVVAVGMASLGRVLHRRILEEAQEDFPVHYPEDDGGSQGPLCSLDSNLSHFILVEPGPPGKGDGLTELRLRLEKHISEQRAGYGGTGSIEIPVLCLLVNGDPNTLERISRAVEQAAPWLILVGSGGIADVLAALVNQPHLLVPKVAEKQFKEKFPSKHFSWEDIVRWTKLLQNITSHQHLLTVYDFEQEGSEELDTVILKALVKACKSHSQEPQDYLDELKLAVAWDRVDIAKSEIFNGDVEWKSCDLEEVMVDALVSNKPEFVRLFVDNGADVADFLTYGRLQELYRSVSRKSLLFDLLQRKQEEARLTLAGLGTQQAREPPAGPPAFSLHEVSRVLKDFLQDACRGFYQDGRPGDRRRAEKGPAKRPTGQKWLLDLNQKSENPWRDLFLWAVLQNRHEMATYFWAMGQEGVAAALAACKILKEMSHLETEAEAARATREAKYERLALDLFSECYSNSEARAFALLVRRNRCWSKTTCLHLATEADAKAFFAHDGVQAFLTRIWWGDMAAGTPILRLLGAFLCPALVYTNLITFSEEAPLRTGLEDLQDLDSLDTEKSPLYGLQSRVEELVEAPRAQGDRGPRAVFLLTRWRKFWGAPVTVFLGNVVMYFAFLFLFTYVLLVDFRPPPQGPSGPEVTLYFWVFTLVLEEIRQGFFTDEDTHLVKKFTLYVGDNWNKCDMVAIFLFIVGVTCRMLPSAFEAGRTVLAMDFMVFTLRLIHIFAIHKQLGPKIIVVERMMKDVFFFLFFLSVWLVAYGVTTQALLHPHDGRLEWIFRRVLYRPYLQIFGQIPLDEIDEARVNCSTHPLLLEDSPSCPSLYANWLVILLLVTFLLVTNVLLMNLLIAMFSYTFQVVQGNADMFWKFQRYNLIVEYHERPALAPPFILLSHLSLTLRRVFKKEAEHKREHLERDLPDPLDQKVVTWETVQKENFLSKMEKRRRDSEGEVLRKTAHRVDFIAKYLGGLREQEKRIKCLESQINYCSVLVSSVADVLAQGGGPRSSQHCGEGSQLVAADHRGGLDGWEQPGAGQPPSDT

[3] = AUC (0 to infinity) in C57BL/6 mouse at 30 mg/kg, po; type: ADME, organism-based; parameters: time infinity, dose 30 mg/kg, route po; settings: in vivo
[4] = Half-life in C57BL/6 mouse at 10 mg/kg, po; type: ADME, organism-based; settings: in vivo
[5] = AUC (0 to infinity) in C57BL/6 mouse at 100 mg/kg, po; type: ADME, organism-based; parameters: time infinity, dose 100 mg/kg, route po; settings: in vivo
[6] = test system: MDR1 (multidrug resistance mutation-1 as written); experiment: Apparent permeability across apical to basolateral side in LLC-PK1 cells overexpressing multidrug resistance mutation-1; type: ADME, cell-based, Sus scrofa; settings: pig
[7] = biological target: T2, Transient receptor potential cation channel subfamily M member 5 (Mus musculus, UniProt Q9JJH7); experiment: Agonist activity at mouse TRPM5 expressed in CHO-K1 cells; type: cell-based
T2 sequence (Q9JJH7 whole entry): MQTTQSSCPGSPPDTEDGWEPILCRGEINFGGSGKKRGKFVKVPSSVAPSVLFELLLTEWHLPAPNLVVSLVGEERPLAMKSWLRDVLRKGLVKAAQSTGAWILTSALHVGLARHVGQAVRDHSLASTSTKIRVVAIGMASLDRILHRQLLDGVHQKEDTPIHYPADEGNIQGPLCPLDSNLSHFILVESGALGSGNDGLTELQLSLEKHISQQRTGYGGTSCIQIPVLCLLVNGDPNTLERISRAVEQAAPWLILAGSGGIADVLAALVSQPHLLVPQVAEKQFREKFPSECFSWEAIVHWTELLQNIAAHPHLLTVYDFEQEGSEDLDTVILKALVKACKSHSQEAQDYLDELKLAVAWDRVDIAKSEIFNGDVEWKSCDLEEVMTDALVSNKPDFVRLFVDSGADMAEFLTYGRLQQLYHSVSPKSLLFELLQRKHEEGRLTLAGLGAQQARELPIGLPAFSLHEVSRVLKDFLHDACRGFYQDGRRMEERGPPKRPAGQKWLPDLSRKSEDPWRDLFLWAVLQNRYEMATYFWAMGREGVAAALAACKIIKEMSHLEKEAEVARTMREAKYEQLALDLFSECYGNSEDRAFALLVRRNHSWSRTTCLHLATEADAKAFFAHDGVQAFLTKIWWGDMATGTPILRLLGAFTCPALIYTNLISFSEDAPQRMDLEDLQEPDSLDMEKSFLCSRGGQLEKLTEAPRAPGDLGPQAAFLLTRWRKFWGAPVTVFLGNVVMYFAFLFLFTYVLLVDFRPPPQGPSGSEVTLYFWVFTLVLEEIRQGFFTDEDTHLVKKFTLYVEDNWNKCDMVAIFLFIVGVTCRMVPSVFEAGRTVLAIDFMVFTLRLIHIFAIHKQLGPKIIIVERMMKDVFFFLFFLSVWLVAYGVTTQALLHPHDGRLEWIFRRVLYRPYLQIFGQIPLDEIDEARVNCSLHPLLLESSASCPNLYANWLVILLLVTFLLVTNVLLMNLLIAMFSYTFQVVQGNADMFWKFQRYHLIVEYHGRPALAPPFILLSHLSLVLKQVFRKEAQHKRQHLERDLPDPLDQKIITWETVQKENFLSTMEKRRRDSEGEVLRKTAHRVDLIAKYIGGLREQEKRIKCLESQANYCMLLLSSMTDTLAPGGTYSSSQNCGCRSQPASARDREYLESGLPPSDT

[8] = Cmax in C57BL/6 mouse at 100 mg/kg, po; type: ADME, organism-based; parameters: dose 100 mg/kg, route po; settings: in vivo
[9] = test system: MDR1 (multidrug resistance mutation-1 as written); experiment: Apparent permeability across basolateral to apical side in LLC-PK1 cells overexpressing multidrug resistance mutation-1; type: ADME, cell-based, Sus scrofa; settings: pig
[10] = Solubility of the compound in JP2 solution at pH 6.8 measured after 3 hrs by UHPLC analysis; type: physicochemical
[11] = Half-life in C57BL/6 mouse at 1 mg/kg, iv; type: ADME, organism-based; settings: in vivo
[12] = Oral bioavailability in C57BL/6 mouse at 30 mg/kg; type: ADME, organism-based; settings: in vivo
[13] = AUC (0 to infinity) in C57BL/6 mouse at 10 mg/kg, po; type: ADME, organism-based; parameters: time infinity, dose 10 mg/kg, route po; settings: in vivo
[14] = biological target: Transient receptor potential cation channel subfamily M member 4 (Homo sapiens, UniProt Q8TD43); experiment: Agonist activity at human TRPM4 expressed in CHO-K1 cells assessed as increase in relative fluorescence unit by measuring membrane potential by FLIPR assay; type: cell-based
Transient receptor potential cation channel subfamily M member 4, sequence (Q8TD43 whole entry): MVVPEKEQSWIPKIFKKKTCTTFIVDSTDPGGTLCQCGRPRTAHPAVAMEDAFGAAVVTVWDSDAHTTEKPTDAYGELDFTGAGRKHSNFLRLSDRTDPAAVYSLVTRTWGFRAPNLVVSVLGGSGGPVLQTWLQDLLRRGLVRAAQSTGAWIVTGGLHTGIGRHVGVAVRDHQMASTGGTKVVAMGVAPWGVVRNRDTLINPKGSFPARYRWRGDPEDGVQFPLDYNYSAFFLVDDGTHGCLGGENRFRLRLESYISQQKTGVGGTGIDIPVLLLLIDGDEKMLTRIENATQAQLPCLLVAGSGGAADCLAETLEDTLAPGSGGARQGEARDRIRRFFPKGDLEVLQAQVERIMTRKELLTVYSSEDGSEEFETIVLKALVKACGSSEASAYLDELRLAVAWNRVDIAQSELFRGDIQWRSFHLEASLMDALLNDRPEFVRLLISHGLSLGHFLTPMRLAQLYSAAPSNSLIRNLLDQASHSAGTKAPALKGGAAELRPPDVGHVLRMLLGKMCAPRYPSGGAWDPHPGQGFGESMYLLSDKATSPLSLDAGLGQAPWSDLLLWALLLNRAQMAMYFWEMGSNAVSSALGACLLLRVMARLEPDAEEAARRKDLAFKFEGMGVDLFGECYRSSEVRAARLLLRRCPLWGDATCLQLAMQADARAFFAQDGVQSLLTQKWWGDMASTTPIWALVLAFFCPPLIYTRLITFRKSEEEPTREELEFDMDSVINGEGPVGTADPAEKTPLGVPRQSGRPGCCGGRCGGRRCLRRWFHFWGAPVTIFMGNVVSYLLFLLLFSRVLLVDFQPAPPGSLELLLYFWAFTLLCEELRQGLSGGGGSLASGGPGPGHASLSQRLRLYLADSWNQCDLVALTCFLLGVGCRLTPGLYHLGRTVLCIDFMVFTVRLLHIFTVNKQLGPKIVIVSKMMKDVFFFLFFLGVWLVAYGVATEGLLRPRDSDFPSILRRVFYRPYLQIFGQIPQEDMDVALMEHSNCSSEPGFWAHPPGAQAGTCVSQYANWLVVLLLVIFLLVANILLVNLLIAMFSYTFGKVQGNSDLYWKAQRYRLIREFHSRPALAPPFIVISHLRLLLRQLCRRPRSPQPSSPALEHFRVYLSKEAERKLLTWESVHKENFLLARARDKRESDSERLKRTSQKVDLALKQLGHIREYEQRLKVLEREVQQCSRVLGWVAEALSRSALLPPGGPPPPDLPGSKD

[15] = Solubility of the compound in JP1 solution at pH 1.2 measured after 3 hrs by UHPLC analysis; type: physicochemical
[16] = Half-life in C57BL/6 mouse at 30 mg/kg, po; type: ADME, organism-based; settings: in vivo
[17] = biological target: Transient receptor potential cation channel subfamily M member 8 (Homo sapiens, UniProt Q7Z2W7); experiment: Agonist activity at human TRPM8 expressed in HEK cells assessed as increase in intracellular calcium level measured for 5 mins by FLIPR assay; type: cell-based
[18] = biological target: Transient receptor potential cation channel subfamily A member 1 (Homo sapiens, UniProt O75762); experiment: Agonist activity at human TRPA1 expressed in HEK cells assessed as increase in intracellular calcium level measured for 5 mins by FLIPR assay; type: cell-based
Transient receptor potential cation channel subfamily A member 1, sequence (O75762 whole entry): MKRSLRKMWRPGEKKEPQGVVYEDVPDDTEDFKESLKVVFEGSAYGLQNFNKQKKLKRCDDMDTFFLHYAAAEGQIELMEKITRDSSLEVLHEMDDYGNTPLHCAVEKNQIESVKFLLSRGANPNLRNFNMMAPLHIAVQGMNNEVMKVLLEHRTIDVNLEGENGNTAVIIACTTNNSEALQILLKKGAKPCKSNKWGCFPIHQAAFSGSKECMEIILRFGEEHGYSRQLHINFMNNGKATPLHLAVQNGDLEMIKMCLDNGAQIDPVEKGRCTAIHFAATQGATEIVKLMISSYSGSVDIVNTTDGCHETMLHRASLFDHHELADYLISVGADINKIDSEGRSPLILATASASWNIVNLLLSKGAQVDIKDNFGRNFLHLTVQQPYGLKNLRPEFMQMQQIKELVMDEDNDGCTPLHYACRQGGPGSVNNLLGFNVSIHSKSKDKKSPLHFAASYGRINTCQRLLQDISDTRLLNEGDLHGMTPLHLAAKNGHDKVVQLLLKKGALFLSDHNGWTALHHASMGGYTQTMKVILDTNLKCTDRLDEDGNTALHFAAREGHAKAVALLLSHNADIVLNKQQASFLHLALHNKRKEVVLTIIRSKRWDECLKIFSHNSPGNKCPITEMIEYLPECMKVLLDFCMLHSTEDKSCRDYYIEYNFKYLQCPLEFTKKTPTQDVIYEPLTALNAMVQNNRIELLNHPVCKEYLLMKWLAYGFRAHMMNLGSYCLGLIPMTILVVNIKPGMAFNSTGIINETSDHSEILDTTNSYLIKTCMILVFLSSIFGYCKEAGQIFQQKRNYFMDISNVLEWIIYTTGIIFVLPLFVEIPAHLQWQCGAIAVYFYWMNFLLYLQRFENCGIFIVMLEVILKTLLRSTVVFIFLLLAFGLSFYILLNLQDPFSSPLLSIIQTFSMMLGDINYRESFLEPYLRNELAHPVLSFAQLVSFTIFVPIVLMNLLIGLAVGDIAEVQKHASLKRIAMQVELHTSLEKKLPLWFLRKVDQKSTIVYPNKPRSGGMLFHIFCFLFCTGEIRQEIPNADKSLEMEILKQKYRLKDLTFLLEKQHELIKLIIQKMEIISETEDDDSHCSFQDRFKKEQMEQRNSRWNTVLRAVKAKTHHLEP

[19] = Half-life in C57BL/6 mouse at 100 mg/kg, po; type: ADME, organism-based; settings: in vivo
[20] = Metabolic stability in human liver microsomes assessed as half life; type: ADME, Microsome
[21] = Cmax in C57BL/6 mouse at 30 mg/kg, po; type: ADME, organism-based; parameters: dose 30 mg/kg, route po; settings: in vivo
[22] = Volume of distribution at steady state in C57BL/6 mouse at 1 mg/kg, iv; type: ADME, organism-based; settings: in vivo
[23] = Oral bioavailability in C57BL/6 mouse at 10 mg/kg; type: ADME, organism-based; settings: in vivo
[24] = biological target: Transient receptor potential cation channel subfamily V member 4 (Homo sapiens, UniProt Q9HBA0); experiment: Agonist activity at human TRPV4
Transient receptor potential cation channel subfamily V member 4, sequence (Q9HBA0 whole entry): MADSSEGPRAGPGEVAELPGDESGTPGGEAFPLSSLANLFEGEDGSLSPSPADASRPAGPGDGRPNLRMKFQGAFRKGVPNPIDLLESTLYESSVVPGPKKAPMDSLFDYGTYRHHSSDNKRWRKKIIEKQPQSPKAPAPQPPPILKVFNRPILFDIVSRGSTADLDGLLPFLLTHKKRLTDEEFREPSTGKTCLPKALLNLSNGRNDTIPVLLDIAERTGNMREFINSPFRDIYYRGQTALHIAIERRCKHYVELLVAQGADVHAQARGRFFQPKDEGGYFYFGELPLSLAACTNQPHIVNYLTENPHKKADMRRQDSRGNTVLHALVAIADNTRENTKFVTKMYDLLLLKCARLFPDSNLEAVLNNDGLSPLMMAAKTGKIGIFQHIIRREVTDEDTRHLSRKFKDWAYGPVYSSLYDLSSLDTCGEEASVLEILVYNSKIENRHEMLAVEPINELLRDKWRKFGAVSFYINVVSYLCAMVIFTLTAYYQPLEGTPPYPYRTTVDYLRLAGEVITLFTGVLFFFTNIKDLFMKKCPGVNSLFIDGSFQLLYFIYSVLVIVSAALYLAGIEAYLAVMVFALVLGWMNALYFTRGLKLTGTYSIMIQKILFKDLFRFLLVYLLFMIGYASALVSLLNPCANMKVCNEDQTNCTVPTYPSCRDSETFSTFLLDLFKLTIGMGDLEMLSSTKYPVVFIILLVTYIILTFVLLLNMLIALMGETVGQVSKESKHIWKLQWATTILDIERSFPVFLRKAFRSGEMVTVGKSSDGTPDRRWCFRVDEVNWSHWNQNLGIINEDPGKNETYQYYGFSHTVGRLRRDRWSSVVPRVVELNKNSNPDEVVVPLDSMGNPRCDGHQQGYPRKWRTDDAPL

[25] = Oral bioavailability in C57BL/6 mouse at 100 mg/kg; type: ADME, organism-based; settings: in vivo
[26] = Cmax in C57BL/6 mouse at 10 mg/kg, po; type: ADME, organism-based; parameters: dose 10 mg/kg, route po; settings: in vivo
[27] = AUC (0 to infinity) in C57BL/6 mouse at 1 mg/kg, iv; type: ADME, organism-based; parameters: time infinity, dose 1 mg/kg, route iv; settings: in vivo
[28] = Clearance in C57BL/6 mouse at 1 mg/kg, iv; type: ADME, organism-based; settings: in vivo
[29] = Cmax in C57BL/6 mouse at 300 mg/kg, po; type: ADME, organism-based; parameters: dose 300 mg/kg, route po; settings: in vivo
[30] = Solubility of the compound in JP1 solution at pH 1.2; type: physicochemical
[31] = Half-life in C57BL/6 mouse at 300 mg/kg, po; type: ADME, organism-based; settings: in vivo
[32] = Area under […] in C57BL/6 mouse at 300 mg/kg administered twice a day; type: ADME, organism-based; settings: in vivo
[33] = Apparent permeability across basolateral to apical side in human Caco-2 cells; type: ADME, cell-based
[34] = Area under […] in C57BL/6 mouse at 30 mg/kg administered twice a day; type: ADME, organism-based; settings: in vivo
[35] = Oral bioavailability in C57BL/6 mouse at 300 mg/kg; type: ADME, organism-based; settings: in vivo
[36] = Area under […] in C57BL/6 mouse at 100 mg/kg administered twice a day; type: ADME, organism-based; settings: in vivo
[37] = Solubility of the compound in JP2 solution at pH 6.8; type: physicochemical
[38] = Unbound fraction in mouse plasma; type: ADME, cell-free
[39] = AUC (0 to infinity) in C57BL/6 mouse at 300 mg/kg, po; type: ADME, organism-based; parameters: time infinity, dose 300 mg/kg, route po; settings: in vivo
[40] = Unbound fraction in human plasma; type: ADME, cell-free
[41] = Apparent permeability across apical to basolateral side in human Caco-2 cells; type: ADME, cell-based

Transient receptor potential cation channel subfamily V member 1, sequence (Q8NER1 whole entry): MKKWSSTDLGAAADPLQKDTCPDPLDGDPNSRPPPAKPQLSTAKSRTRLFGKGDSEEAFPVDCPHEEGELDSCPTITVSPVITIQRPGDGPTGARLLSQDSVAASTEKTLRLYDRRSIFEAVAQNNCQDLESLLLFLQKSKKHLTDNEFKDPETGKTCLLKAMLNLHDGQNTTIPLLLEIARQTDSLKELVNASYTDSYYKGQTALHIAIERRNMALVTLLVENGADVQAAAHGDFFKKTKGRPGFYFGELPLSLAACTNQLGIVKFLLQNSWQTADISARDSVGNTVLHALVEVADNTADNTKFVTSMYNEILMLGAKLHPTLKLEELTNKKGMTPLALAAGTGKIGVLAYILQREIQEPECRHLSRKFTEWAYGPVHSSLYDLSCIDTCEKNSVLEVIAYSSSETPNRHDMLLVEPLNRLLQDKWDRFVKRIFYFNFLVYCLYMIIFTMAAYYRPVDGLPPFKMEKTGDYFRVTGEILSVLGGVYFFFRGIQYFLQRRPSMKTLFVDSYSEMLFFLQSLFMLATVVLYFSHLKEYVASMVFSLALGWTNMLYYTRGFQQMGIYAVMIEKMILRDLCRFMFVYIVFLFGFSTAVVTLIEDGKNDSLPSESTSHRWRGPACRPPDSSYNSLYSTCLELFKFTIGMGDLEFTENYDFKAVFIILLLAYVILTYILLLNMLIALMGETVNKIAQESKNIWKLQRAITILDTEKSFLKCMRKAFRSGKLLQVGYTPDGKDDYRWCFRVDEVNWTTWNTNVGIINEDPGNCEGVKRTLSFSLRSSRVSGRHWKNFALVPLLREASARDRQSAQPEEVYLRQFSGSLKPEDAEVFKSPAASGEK

What does the source list for `N#Cc1ccc2c(c1)C[C@H](CO)N[C@@H]2c1cc(F)cc(Cl)c1`?
EC50 [1]: > 15.8 µM; EC50 [2]: 0.0794 µM; AUC [3]: 1716 ng·h/mL; t1/2 ([4]; mouse, po, 10 mg/kg): 4.3 h; AUC [5]: 8591 ng·h/mL; Papp A→B [6]: 26.6 ×10⁻⁶ cm/s; EC50 [7]: 0.251 µM; Cmax [8]: 1396 ng/mL; Papp B→A [9]: 13.7 ×10⁻⁶ cm/s; solubility at 3 h [10]: 43 µg/mL (≈ 0.136 mM); t1/2 ([11]; mouse, iv, 1 mg/kg): 0.8 h; F [12]: 20.3%; AUC [13]: 395 ng·h/mL; EC50 [14]: 52.5 µM; solubility at 3 h [15]: 3500 µg/mL (≈ 11 mM); half-life ([16]; C57BL/6, mouse): 5.4 h; EC50 [17]: > 15.8 µM; EC50 [18]: > 15.8 µM; t1/2 ([19]; mouse, po, 100 mg/kg): 6.3 h; t1/2 ([20]; microsomes): 1.48 h; Cmax [21]: 301 ng/mL; Vdss ([22]; mouse, iv, 1 mg/kg): 3.507 L/kg; F [23]: 16.6%; EC50 [24]: > 15.8 µM; F [25]: 49%; Cmax [26]: 101 ng/mL; AUC ([27]; mouse): 177.1 ng·h/mL

What does the source list for `N#Cc1ccc2c(c1)C[C@H](CO)N[C@@H]2c1cc(F)cc(Cl)c1` (racemic)?
clearance [28]: 92.3 mL/min/kg; Cmax [29]: 6020 ng/mL; EC50 [2]: 0.126 µM; solubility [30]: 25300 µg/mL (≈ 79.7 mM); half-life [31]: 5.5 h; AUC [3]: 3676 ng·h/mL; AURC [32]: 17.3 h; half-life ([4]; C57BL/6, mouse): 2.9 h; AUC [5]: 28050 ng·h/mL; Papp B→A [33]: 15.4 ×10⁻⁶ cm/s; AURC [34]: 6.7 h; bioavailability [35]: 100%; AURC [36]: 12.3 h; solubility [37]: 201 µg/mL (≈ 0.635 mM); Cmax [8]: 3667 ng/mL; half-life ([11]; C57BL/6, mouse): 1.1 h; fraction unbound [38]: 0.115; AUC(0-inf) [39]: 49400 ng·h/mL; F [12]: 74%; AUC [13]: 848 ng·h/mL; EC50 [14]: 11.5 µM; t1/2 ([16]; mouse, po, 30 mg/kg): 4.4 h; half-life ([19]; C57BL/6, mouse): 5.1 h; half-life ([20]; liver microsomes): 1.53 h; Cmax [21]: 700 ng/mL; Vd ([22]; C57BL/6, mouse, read-out: Vdss): 4.41 L/kg; F [23]: 44%; F [25]: 100%; fraction unbound [40]: 0.121; Cmax [26]: 290 ng/mL; AUC(0-inf) ([27]; C57BL/6, mouse): 181 ng·h/mL; Papp A→B [41]: 10.3 ×10⁻⁶ cm/s

From ChEMBL document CHEMBL5150049, “The discovery of (1R, 3R)-1-(3-chloro-5-fluorophenyl)-3-(hydroxymethyl)-1,2,3,4-tetrahydroisoquinoline-6-carbonitrile, a potent and selective agonist of human transient receptor potential cation channel subfamily m member 5 (TRPM5) and evaluation of as a potential gastrointestinal prokinetic agent” (Bioorg Med Chem, 2022)
